Test results from patent publication US20220287998A1, “USE OF C3aR IN PREPARING DRUG FOR PREVENTING OR TREATING POLYCYSTIC KIDNEY DISEASE” (Shanghai Changzheng Hospital, priority 2021, published 2022).

How the values were obtained:
[1] = test system: Pkd1 knockout mouse; assay: Apoptosis of cyst cells in Pkd1 knockout mouse; type: in vivo
[2] = test system: Pkd1 conditional knockout mice; assay: F4/80 immunofluorescence staining, macrophage infiltration in kidney tissue of Pkd1 conditional knockout mice; type: in vivo; conditions: 1 mg/kg i.p. once a day; treatment group versus model control group
From the text: F4/80 in the kidney tissues of the wild group, the model control group and the SB290157 treatment group were stained by immunofluorescence to compare the macrophage infiltration.

[3] = test system: Pkd1 knockout mice; assay: Effect of C3aR inhibitor SB290157 on cyst indexes and kidney function of Pkd1 knockout mice; type: in vivo
From the text: Experimental animals: the animals used in this experiment were PKD1^flox/flox-Tamoxifen-Cre mice, gifted by professor Wüthrich RP, University of Zurich, Switzerland, and were bred in Specific Pathogen Free (SPF) Laboratory Animal Center of Naval Medical University [License No: SYXK (Shanghai): 2017-0004].
The blood creatinine, urea nitrogen, kidney/body weight, and cyst index of each group of mice were compared.
The main reagents used were a C3aR inhibitor (Calbiochem, SB290157, Germany), Creatinine Assay Kit (Nanjing Jiancheng Bioengineering Institute), Urea Nitrogen Assay Kit (Nanjing Institute of Built Bioengineering), and dimethyl sulfoxide (DMSO) (Amresco, 1963C070, USA).
Serum creatinine (μmol/L)=[(Sample A2-K*Sample A1)−(Blank A2-K*Blank A1)]/[(Standard A2-K*Standard A1)−(Blank A2-K*Blank A1)]*Standard Concentration; Formula:
Urea nitrogen (mmol/L)=(Assay OD−Blank OD)/(Standard OD−blank OD)*Standard Concentration (10 mmol/L)*Dilution multiple;
After HE staining, scanning was performed with a whole slide image scanner, and pictures were exported and saved using CaseViewer software. The total pixel value of the whole kidney in Photoshop software was calculated as A1, a cyst area was selected and calculated the total pixel value as A2, wherein the ratio of A2 to A1 is the cyst index.

[4] = test system: ADPKD-related pathway protein; assay: Western blot of ADPKD-related signaling pathway proteins in kidney tissue; type: in vivo, mice
From the text: In order to further explore the therapeutic mechanism of SB290157 on polycystic kidney mice, the expression of ADPKD-related pathway protein was detected by Western blot.

[5] = test system: mouse cyst epithelial cells; assay: Ki67 immunohistochemical staining of kidney slices, proliferation of cyst epithelial cells; type: in vivo, mice; conditions: treatment group versus model control group
Method: In order to explore whether the proliferation of mouse cyst epithelial cells was restricted after treatment, immunohistochemical staining for Ki67 was performed on kidney slices of each group of mice, wherein Ki67 was a nuclear protein that could reflect the cell proliferation level.

[6] = test system: Han:sPRD rats and PKD1 knockout mice; conditions: cited from earlier work
[7] = test system: RAW264.7 cells; assay: TNF-α level in macrophage culture supernatants by Elisa; type: cell-based, Murine; conditions: culture supernatant, after C3a stimulation
Method: (§1) The C3aR expression on the cell surface affected the sensitivity of downstream signals induced by C3a, so C3a-C3aR should act mainly on M1-type macrophages, which was consistent with the downstream pro-inflammatory effect. To verify the effect of C3a stimulation on the expression of M1-type macrophage inflammatory factor, RAW264.7 cells were divided into 5 groups: (1) a control group: without any stimulation; (2) a LPS group: stimulated with 100 ng/ml LPS; (3) a LPS+C3a group: stimulated with 100 ng/ml LPS+100 ng/ml C3a; (4) a IL-4 group: stimulated with 20 ng/ml IL-4; (5) a IL-4+C3a group: stimulated with 20 ng/ml IL-4+100 ng/ml C3a. After 24 hours, cell RNA was extracted, and RT-PCR was used for detecting iNOS, TNF-α and IL-6 mRNA level in each group of cells, wherein the primer sequence used by RT-PCR was as follows: iNOS primer sequence Mouse F: 5′-[…]-3′ (SEQ ID NO:9), Mouse R: 5′-[…]-3′ (SEQ ID NO:10), IL-6 primer sequence Mouse F: 5′-[…]-3′ (SEQ ID NO:11), Mouse R: 5′-[…]-3′ (SEQ ID NO:12), TNF-α primer sequence Mouse F: 5′-GGCATGGATCTCAAAGACA-3′ (SEQ ID NO:13), Mouse R: 5′-TGGGCTCATACCAGGGTT-3′ (SEQ ID NO:14).
The TNF-α level in the culture supernatants of macrophages from different treatment groups were detected by Elisa. […]

[8] = test system: RAW264.7 cells; assay: C3a stimulation of macrophages, RT-PCR of iNOS, TNF-α and IL-6 mRNA; type: cell-based, Murine; conditions: 24 hours
Method: as §1

[9] = test system: RAW264.7 cells; assay: C3a stimulation of macrophages, Western blot of p-Akt, p-ERK, p-P65, p-STAT1 and TNF-α; type: cell-based, Murine; conditions: 24 hours
Method: In order to explore the mechanism of pro-inflammatory effects of C3a-C3aR on M1-type macrophages, RAW264.7 cells were divided into 4 groups with LPS as a stimulation factor and C3a as an intervention factor: (1) a control group (without any stimulation); (2) a C3a (100 ng/ml) stimulation group; (3) a LPS (100 ng/ml) stimulation group; (4) a C3a (100 ng/ml)+LPS (100 ng/ml) stimulation group. After 24 hours, cell proteins in each group were extracted, and Western blot was used for detecting the expression of p-Akt, p-ERK, p-P65, p-STAT1 and TNF-α. […] Akt and ERK may regulate the apoptosis and proliferation of M1-type macrophages, while NF-κB and STAT1 was an important signaling pathway for polarization and related inflammation of M1-type macrophage. Therefore, it is speculated that C3a-C3aR may promote the activation of Akt, ERK, STAT1 and NF-κB pathway in M1-type macrophages, and then promote the secretion of TNF-α inflammatory factors by M1-type macrophages.

[10] = treatment group compared with model control group
[11] = treatment group compared to model control group
[12] = M1-type macrophages (100 ng/ml LPS) + 100 ng/ml C3a
[13] = M1-type macrophages, C3a 100 ng/ml + LPS 100 ng/ml

Compound: N=C(N)NCCCC(NC(=O)COCC(c1ccccc1)c1ccccc1)C(=O)O (stereo not drawn) [SB290157]
- apoptosis [1]: increasing
- positive rate of F4/80 in the kidney tissue (macrophage infiltration) [2]: significantly lower
- double kidney weight/body weight ratio (2KW/BW) ([3]; Pkd1 knockout mice, 1 mg/kg i.p. once a day, day 28, model control 0.112±0.006, wild 0.012±0.000): 0.043±0.007
- blood urea nitrogen ([3]; Pkd1 knockout mice, 1 mg/kg i.p. once a day, day 28, model control 80.4±6.0, wild 6.8±0.7): 26.3 ± 6.5 mmol/L
- serum creatinine ([3]; Pkd1 knockout mice, 1 mg/kg i.p. once a day, day 28, model control 90.0±3.6, wild 13.0±1.2 μmol/L): 29.3±3.4 μm
- cyst index ([3]; Pkd1 knockout mice, 1 mg/kg intraperitoneal once a day from postnatal day 12, sacrificed day 28, model control 49.9±1.9%): 35.3±1.9%
- cyst area (HE staining) [3, 10]: reduction
- kidney volume [3, 10]: reduced
- C3aR level [4]: reduced
- expression of p-Akt protein [4, 11]: down-regulated
- expression of p-ERK protein [4, 11]: down-regulated
- expression of p-P65 protein [4, 11]: down-regulated
- number of kidney Ki67 positive staining cells [5]: significantly lower

Compound: [Cl][Co][Cl] [cobalt chloride]
- growth of kidney cysts [6]: inhibit
- infiltration of kidney interstitial macrophages [6]: significantly reduce
- kidney function [6]: improve

Compound: O=C(/C=C/c1ccc(O)c(O)c1)O[C@H](Cc1ccc(O)c(O)c1)C(=O)O [rosmarinic acid]
- growth of kidney cysts [6]: inhibit
- infiltration of kidney interstitial macrophages [6]: significantly reduce
- kidney function [6]: improve

Compound: C3a: produced by activation of complement C3; promotes inflammatory cell infiltration; used at 100 ng/ml to stimulate macrophages
- TNF-α level secreted by M1-type macrophages [7]: further increased
- pro-inflammatory effect on M2-type macrophages ([8]; 20 ng/ml IL-4 + 100 ng/ml C3a): no significant pro-inflammatory effect
- IL-6 mRNA level [8, 12]: remarkably up-regulated
- TNF-alpha mRNA level [8, 12]: remarkably up-regulated
- iNOS mRNA level ([8]; M1-type macrophages (100 ng/ml LPS) + 100 ng/ml C3a, versus LPS group): up-regulated
- stimulatory effect on M0-type macrophages (p-Akt, p-ERK, p-P65, p-STAT1, TNF-α) ([9]; C3a 100 ng/ml alone): not significant
- expression of TNF-α protein [9, 13]: further up-regulated
- expression of p-Akt protein [9, 13]: further up-regulated
- expression of p-ERK protein [9, 13]: further up-regulated
- expression of p-P65 protein [9, 13]: further up-regulated
- expression of p-STAT1 protein [9, 13]: further up-regulated
